In US11020488B2, “Pyrroloquinolin compounds and methods of using same” (The Regents of the University of California, priority 2017, dated 2021):
Where two headings read alike, the source gives them in different places.

Key:
PANC-1 cell line [1] = test: cells; settings: for fold decrease in PANC-1 potency (PP<) relative to makaluvamine J (9) / fold decrease in PANC-1 potency (PP<) relative to makaluvamine A (1): '<' in PP codes a decrease in potency; for PANC-1 cytotoxic potency (words): PANC-1 (set of b111: PANC-1 and/or OVCAR tumor cells)
Text: The task of IC50 assessment for the natural products isolated in this study against the PANC-1 tumor cells line began immediately following the purification and characterization of each pyrrolo[4,3,2-de]quinoline obtained (FIG. 3). […] However, a sample of ammosamide B (17) was obtained from the NCI Molecular Targets Laboratory. Two additional clinically used compounds, etoposide and teniposide were also run in the assay.
The soft agar disk diffusion assay, IC50 determination, and clonogenic assay were performed as previously described.

OVCAR-5 [2] = test: IC50 determination against OVCAR-5 ovarian cancer cell line; assay type: cell-based, human; settings: for IC50: OVCAR-5, values of the text
Method: The soft agar disk diffusion assay, IC50 determination, and clonogenic assay were performed as previously described [35].

OVCAR-3 = settings: first value of OVCAR-3/-5 cell, refs [9], [38], NCI-DTP database; cited from earlier work
PANC-1 cell line [3] = settings: cited from earlier work; for IC50: read-out: PANC-1 IC50, PANC-1, literature data, refs [25], [26], [30]
OVCAR-5 [4] = settings: second value of OVCAR-3/-5 cell, ref [9], NCI-DTP database; cited from earlier work
KB xenografts = settings: KB mouse model xenografts, ref [9]; cited from earlier work
HCT-116 cells = test: Clonogenic dose-response assay, continuous exposure; assay type: cell-based
Text: FIG. 7 Evaluation of makaluvamine J (9) through clonogenic dose-response evaluation employing HCT-116 cells. Continuous exposure of the cells with 9 at different concentrations during periods of: 2 hr, 24 hr, or 120 hr. Efficacy is indicated when the surviving fraction is less than 0.1.
Accurate determination of the exposures required to achieve a useful in vivo therapeutic effect is the outcome being sought through clonogenic study. Illustrated here are data measuring the cytotoxic effect of makaluvamine J (9) at varying concentrations during continuous exposure. Other relevant data to be obtained in the future consists of: (a) repeating the clonogenic runs on makaluvamine acetate J (15), (b) obtaining the maximum tolerated dose (MTD) for both, and (c) assessing the pharmacokinetic behavior of these compounds measured in both plasma and tumors, (PANC-1 and OVC-5) at the MTD which will be tracked through by MS^2 data. The key measurement involved determining the required time-concentration profile to obtain a 90% kill (10% survival-S10) of tumor cells. […] At this juncture it appears that a chronic exposure for five days will be effective and the exact therapeutics regime will depend on the MTD determination data and future pharmacokinetic results.

[5] = read-out: PANC-1 IC50, PANC-1 pancreatic tumor cell line
[6] = Homo sapiens, PANC-1, read-out: PANC-1 IC50, PANC-1 pancreatic tumor cell line

Compound: 8,15-O-diacetyl-8-hydroxy-5a,7,8a-trien-makaluvamine J
- fold decrease in PANC-1 potency (PP<) relative to makaluvamine J (9) (PANC-1 cell line [1]; ratio of PANC-1 IC50): ~10 fold
- IC50 (PANC-1 cell line [1]; [5]): 590 nM

Compound: 9-N-acetyl makaluvamine B [9-N-acetyl makaluvamine B (14)]
- fold decrease in PANC-1 potency (PP<) relative to makaluvamine A (1) (PANC-1 cell line [1]; ratio of PANC-1 IC50): > 200 fold
- IC50 (PANC-1 cell line [1]; [5]): 91000 nM

Compound: 15-O-acetyl makaluvamine J [15-O-acetyl makaluvamine J (15)]
- IC50 (OVCAR-5 [2]): 8.6 nM
- fold increase in OVCAR-5 potency over makaluvamine J (9) (OVCAR-5 [2]; ratio of OVCAR-5 IC50): 14 fold
- PANC-1 cytotoxic potency (words) (PANC-1 cell line [1]): most potent IC50 values
- fold decrease in PANC-1 potency (PP<) relative to makaluvamine J (9) (PANC-1 cell line [1]; ratio of PANC-1 IC50): 1.5 fold
- IC50 (PANC-1 cell line [1]; [5]): 81 nM

Compound: O=C1C(NCc2ccc(F)cc2)=CC2=NCCc3c[nH]c1c32 [FBA-TBQ (18), 7-(4-fluorobenzylamino)-1,3,4,8-tetrahydropyrrolo[4,3,2-de]quinolin-8(1H)-one, reference compound]
- IC50 (OVCAR-3): 950 nM
- cytotoxicity against PANC-1 cells (words) (PANC-1 cell line [3]): moderate cytotoxicity
- IC50 (PANC-1 cell line [3]): 110 nM
- less potent than makaluvamine J (9) against PANC-1 (PANC-1 cell line [1]; comparison of PANC-1 IC50 with 9): ~50%

Compound: CN1C(=O)c2cc(C(N)=O)nc3c(N)c(Cl)c(N)c1c23 [ammosamide B (17), ammosamide B, reference compound]
- IC50 (PANC-1 cell line [1]; [5]): 26000 nM

Compound: CN1CCc2cn(C)c3c2C1=CC(=O)C3=O [damirone A (5), damirone A]
- IC50 (PANC-1 cell line [1]; [5]): 160000 nM

Compound: CN1CCc2c[nH]c3c2C1=CC(=O)C3=O [damirone B (3), damirone B]
- IC50 (PANC-1 cell line [1]; [5]): 19000 nM

Compound: COc1cc([C@@H]2c3cc4c(cc3[C@@H](O[C@@H]3O[C@@H]5CO[C@@H](C)O[C@H]5[C@H](O)[C@H]3O)[C@H]3COC(=O)[C@H]23)OCO4)cc(OC)c1O [etoposide, reference compound]
- IC50 (PANC-1 cell line [1]; [6]): 390 nM

Compound: Nc1ccn([C@@H]2O[C@H](CO)[C@@H](O)C2(F)F)c(=O)n1 [gemcitabine]
- IC50 (PANC-1 cell line [3]): 7200 nM

Compound: CSc1c2c3c(n1C)C(=O)C(N)=C(Cl)C3=NCC2 [isobatzelline A]
- cytotoxicity against PANC-1 cells (words) (PANC-1 cell line [3]; literature surveys): moderate cytotoxicity

Compound: Cn1cc2c3c1C(=O)C(N)=C(Cl)C3=NCC2 [isobatzelline C (19), isobatzelline C]
- cytotoxicity against PANC-1 cells (words) (PANC-1 cell line [3]; literature surveys, listed as 19): relatively inactive
- cytotoxicity against PANC-1 cells (words) (PANC-1 cell line [3]; literature surveys, listed as isobatzelline C): moderate cytotoxicity
- IC50 (PANC-1 cell line [3]): 10000 nM

Compound: CSc1c2ccnc3c2c(n1C)C(=O)C(N)=C3Cl [isobatzelline D]
- cytotoxicity against PANC-1 cells (words) (PANC-1 cell line [3]; literature surveys): moderate cytotoxicity

Compound: Cn1cc2c3c1C(=O)C(N)=CC3=NCC2 [makaluvamine A (1), makaluvamine A]
- IC50 (PANC-1 cell line [1]; [5]): 450 nM

Compound: C[N+]1=C2C=C(N)C(=O)c3[nH]cc(c32)CC1.[Cl-] [makaluvamine C (2), makaluvamine C]
- IC50 (OVCAR-3): 240 nM
- fold decrease in PANC-1 potency (PP<) relative to makaluvamine J (9) (PANC-1 cell line [1]; ratio of PANC-1 IC50): 13.5 fold
- IC50 (PANC-1 cell line [1]; [5]): 730 nM

Compound: Cn1cc2c3c1C(=O)C(N/C=C/c1ccc(O)cc1)=CC3=[N+](C)CC2 [makaluvamine G (8), makaluvamine G]
- IC50 (PANC-1 cell line [1]; [5]): 6200 nM

Compound: Cn1cc2c3c1C(=O)C(N)=CC3=[N+](C)CC2.O=C([O-])C(F)(F)F [makaluvamine H (4), makaluvamine H]
- IC50 (OVCAR-5 [4]): 100 nM
- IC50 (OVCAR-3): 960 nM
- T/C % (tumor volume in treated/tumor volume in untreated) (KB xenografts): 38%
- fold decrease in PANC-1 potency (PP<) relative to makaluvamine A (1) (PANC-1 cell line [1]; ratio of PANC-1 IC50): 7.9 fold
- IC50 (PANC-1 cell line [1]; [5]): 3600 nM

Compound: C[N+]1=C2C=C(NCCc3ccc(O)cc3)C(=O)c3[nH]cc(c32)CC1 [makaluvamine J (9), makaluvamine J]
- IC50 (OVCAR-5 [2]): 120 nM
- PANC-1 cytotoxic potency (words) (PANC-1 cell line [1]): most potent
- PANC-1 cytotoxic potency (words) (PANC-1 cell line [1]; listed as 9): most potent IC50 values
- IC50 (PANC-1 cell line [1]; [5]): 54 nM
- 2S10, concentration for 90% kill (10% survival) (HCT-116 cells; HCT-116, 2 h exposure, extrapolated): 3 µg/mL
- 24S10, concentration for 90% kill (10% survival) (HCT-116 cells; HCT-116, 24 h exposure): 400 ng/mL
- 120S10, concentration for 90% kill (10% survival) (HCT-116 cells; HCT-116, 120 h exposure): 30 ng/mL
- toxicity to HCT-116 cells (HCT-116 cells; two hour dosing schedule): Little toxicity

Compound: Cn1cc2c3c1C(=O)C(NCCc1ccc(O)cc1)=CC3=NCC2 [makaluvamine K (10), makaluvamine K]
- fold decrease in PANC-1 potency (PP<) relative to makaluvamine A (1) (PANC-1 cell line [1]; ratio of PANC-1 IC50): 1.2 fold
- fold decrease in PANC-1 potency (PP<) relative to makaluvamine J (9) (PANC-1 cell line [1]; ratio of PANC-1 IC50): 10.4 fold
- IC50 (PANC-1 cell line [1]; [5]): 560 nM

Compound: C[N+]1=C2C=C(N/C=C/c3ccc(O)cc3)C(=O)c3[nH]cc(c32)CC1.O=C([O-])C(F)(F)F [makaluvamine L (11), makaluvamine L]
- fold decrease in PANC-1 potency (PP<) relative to makaluvamine J (9) (PANC-1 cell line [1]; ratio of PANC-1 IC50): 35.0 fold
- IC50 (PANC-1 cell line [1]; [5]): 1900 nM

Compound: Cn1cc2c3c1C(=O)C(NCCc1ccc(O)cc1)=CC3=[N+](C)CC2.[Cl-] [makaluvamine P (12), makaluvamine P]
- fold increase in PANC-1 potency (PP>) relative to makaluvamine H (4) (PANC-1 cell line [1]; ratio of PANC-1 IC50, '>' in PP codes an increase in potency): 12.3
- IC50 (PANC-1 cell line [1]; [5]): 300 nM

Compound: N=C1C(Cl)=C(N)C(=O)c2[nH]cc(C(O)CO)c21 (stereo not drawn) [secobatzelline A]
- cytotoxicity against PANC-1 cells (words) (PANC-1 cell line [3]; literature surveys): moderate cytotoxicity

Compound: COc1cc([C@@H]2c3cc4c(cc3[C@@H](O[C@@H]3O[C@@H]5CO[C@@H](c6cccs6)O[C@H]5[C@H](O)[C@H]3O)[C@H]3COC(=O)[C@H]23)OCO4)cc(OC)c1O [teniposide, reference compound]
- IC50 (PANC-1 cell line [1]; [6]): 40 nM
- IC50 (PANC-1 cell line [1]; [5]): 41 nM

Compound: damirone D [damirone D (6)]
- IC50 (PANC-1 cell line [1]; [5]): 3400 nM

Compound: makaluvamine D [makaluvamine D (7)]
- IC50 (PANC-1 cell line [1]; [5]): 290 nM

Compound: makaluvamine I [reference compound]
- T/C % (tumor volume in treated/tumor volume in untreated) (KB xenografts): 34%
